According to patent publication US20130150399A1, “INHIBITORS OF THE UNFOLDED PROTEIN RESPONSE AND METHODS FOR THEIR USE” (The Board of Trustees of the Leland Stanford Junior …, priority 2006, published 2013):

How the values were obtained:
[1] = system: phospho-IRE1α; assay: Western immunoblot of phospho-IRE1α (IRE1α kinase), HT1080 cells; format: cell-based, human; conditions: preincubated 16 hours, 2.5 μM; Tm 5 μg/ml
Procedure: Cells (2×10^6) were cultured in 10-cm dishes, collected using a cell scraper at 4° C., and lysed by addition of 150 μl cell lysis buffer [50 mM Tris pH 7.4, 150 mM NaCl, 10% glycerol, 0.5% Triton X-100. 0.5% NP-40, 2 mM Na3VO4, 20 mM beta-glycerophosphate, 10 mM NaF, 1 mM DTT, 1 mM PMSF). Lysates were centrifuged for 5 min at 10,000×g, and proteins (˜40 μg) were resolved by SDS-PAGE followed by semi-dry transfer to nitrocellulose membranes. Membranes were blocked in TBS-5% milk supplemented with 0.1% Tween-20. The blots were then probed overnight with relevant antibodies, washed, and incubated for 2 hours with species-specific secondary antibodies conjugated to horseradish peroxidase. After washing in block solution, immunoreactive material was detected by enhanced chemiluminescence (SuperSignal West Dura Extended, Pierce, Inc., Rockville, Ill.).
HT1080 cells were exposed to DMSO vehicle (lane 1), irestatin 9389 (2.5 μM; lane 2) for 16 hours or Tm (5 μg/ml; lane 3) for 8 hours. Following treatments, cells were harvested, lysed, and analyzed by immunoblotting using anti-Grp78 antibody (top) or anti-actin (bottom) as a loading control. […] Cell lysates were analyzed by Western immunoblotting using anti-IRE1α (bottom) or anti-phospho-IRE1α antibodies (top). […] Lysates were analyzed by Western blot using antisera specific for phospho-JNK1 (top) or total JNK1 (bottom). […]

[2] = system: HT1080 fibrosarcoma; assay: Cell proliferation assay, HT1080; format: cell-based, human; conditions: normal conditions; same concentrations
Procedure: A. Effect of irestatin 9389 on PERK and ATF6 pathways. HT1080 cells were treated with vehicle alone (lanes 1-4) or 2.5 μM irestatin 9389 (lanes 5-8) and cultured under aerobic conditions for 18 hours (N) or shifted to hypoxia for the indicated times. Protein lysates were analyzed by Western blot analysis using antisera specific for ATF6 (top), CHOP/GADD153 (middle) or actin (bottom). Arrow indicates the cleaved, transcriptionally active form of ATF6. B. Cleavage of caspase-3 in irestatin-treated cells under hypoxia. HT1080 cells were cultured in normoxia (N) or under hypoxia for 36 hours (H 36) in absence or presence of irestatin 9389 (2.5 μM). Arrows indicate proteolytically cleaved caspase-3. C. Colony formation assay. HT1080 cells were treated as in B under normoxia (N) or hypoxia for 48 hours (H 48). Cells were harvested, counted, and allowed to grow under normal culture conditions for 11-12 days. Colonies were visualized with crystal violet staining. D. Quantification of clonogenic survival assay. Values represent the mean+/−SEM from at least 4 independent experiments. E. TUNEL staining of cells treated as in C. F. Quantification of TUNEL-positive cells. Values represent the mean+/− SEM from at least 3 experiments. […] Cells were harvested at the indicated times and counted by hemocytometer. Values represent the mean calculated from triplicate experiments+/−SEM.

Structure (SMILES): Cc1csc(NC(=O)CSc2nc3c(c(C(F)(F)F)c2C#N)CCC3)n1 [Compound 9389]
- levels of phospho-IRE1α after addition of Tm [1]: rapid increase in levels of phospho-IRE1α
- growth rate of HT1080 cells [2]: negligible effect on the growth rate
